Reference: patent publication US5858736A, “Preparation of lactams from aliphatic α,ω-dinitriles” (priority 1996, dated 1999)
In brackets after ≈: the same amount, converted by molar mass.

Legend:
[1] = cited from earlier work
[2] = pKa of acid and protonated amine groups / ionization at reaction pH; assay type: physicochemical; settings: calculated, reaction mixture pH of between 9 and 10
physchem = settings: 20 mm phosphate buffer, pH 7, aqueous buffer
[3] = Solubility of dinitrile in the aqueous cell suspension; assay type: physicochemical; settings: aqueous cell suspension of Acidovorax facilis 72W, two-phase above this concentration; read-out: concentration above which the solubility of the dinitrile was exceeded
Method: Into a 500 mL erlenmeyer flask equipped with magnetic stir bar was placed 50.0 g of frozen Acidovorax facilis 72W (ATCC 55746) cells (previously heat-treated at 50° C. for 1 h before freezing) and 450 mL of potassium phosphate buffer (20 mM, pH 7.0) at 27° C. With stirring, the cells were thawed and suspended, then centrifuged and the supernatant discarded. The cell pellet was resuspended in a total volume of 863 mL of potassium phosphate buffer (20 mM, pH 7.0) in a 1.0 L flask, then 133 g (137.0 mL, 1.25 mole) of 2-methyleneglutaronitrile was added with stirring at 27° C. […] Samples (0.100 mL) were withdrawn, diluted 1:10 with water and centrifuged, then 0.150 mL of the supernatant was placed in a Millipore Ultrafree-MC filter unit (0.22 micron) and mixed with 0.150 mL of an aqueous solution of 0.150M N-methylpropionamide (HPLC external standard solution). The resulting solution was filtered and analyzed by HPLC.

[4] = Lange's Handbook of Chemistry, 14th edn.

For NCCCCCC(=O)O [6-aminocaproic acid], the “pKa of the carboxylic acid group” value [1, 4] is given as 4.373, the “pKa of the protonated amine group” value [1, 4] is given as 10.804 and the “fraction existing in solution as the ammonium salt of the carboxylic acid” value [2] is given as “at least 99.997%”.
With N.NCCCCCC(=O)O [6-aminocaproic acid ammonium salt] the “fraction of amine groups protonated” value [2] was “approximately half”.
In the case of N#CCCCCC#N [adiponitrile], the solubility (physchem) is reported as about 600 mM (≈ 64.9 mg/mL).
In the case of C=C(C#N)CCC#N [2-methyleneglutaronitrile], the solubility [3] is reported as at most 400 mM.
For CN [methylamine], the “pKa for the protonated amine (methylamine)” value ([1]; in water) is listed as 10.62.
